This passage reports TGI and GI50 results from PubChem BioAssay (NCI).

Several values for one entry are separate records, joined by “and”; a condition that tells them apart may be missing. Identical values can stand only once.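 Assay format: 96-well plates, 48-hour exposure. The concentration for 50% growth inhibition is given as GI50. TGI: total growth inhibition.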

Holding throughout (test): DTP human tumour cell line panel, 48 h
For test [1], the system named is 786-0 renal.
Test [2] deals with HOP-62 NSCLC.
For test [3], the system named is MALME-3M melanoma.
The subject of test [4] is KM20L2 colon.
In test [5] the test system is RXF 393 renal.
The test system of test [6] is NCI-H23 lung.
The test system of test [7] is M14 melanoma.
The subject of test [8] is UACC-257 melanoma.
In test [9] the test system is SK-MEL-2 melanoma.
The subject of test [10] is DLD-1 colon.
Test [11] has as its system RPMI-8226 leukemia.
The subject of test [12] is DMS 114 small cell lung.
Test [13] relates to MDA-N.

What is called TGI is the concentration giving total growth inhibition. The low end stands for greater sensitivity of the cells, the high end for lower sensitivity of the cells. Regarding `CCCC(C)NC1=C(NC(C)=O)C(=O)c2ccccc2C1=O` (stereo not given), the TGI in test [1], in test [2], in [3], in test [4], in test [5] and in [6] was above 100 µM throughout. Besides, the TGI in [7], in [8], in test [9] and in test [10] was above 100 µM each time.
For orientation: GI50 means the concentration that inhibits growth by half. Regarding `COc1cc(CNc2ccc(SC)cc2)cc(OC)c1OC`, the TGI was 77.2 µM and 65.8 µM in [1]; > 78.3 µM and 66.2 µM in test [11]; > 100 µM and 61.1 µM in [2]; above 100 µM in test [3]; 19.5 µM and 23.3 µM in [4]; 39.6 µM and 42.7 µM in [5]. For the same molecule, the TGI in test [6] is 44 µM and 46.7 µM; in test [12] it was 20.9 µM and 8.02 µM; in [7], > 47 µM and 37.9 µM; in test [8] it was > 91.7 µM and 41.8 µM; in test [9], 46 µM and > 50.6 µM; in [13] it was 7.15 µM. In test [10], this molecule had a TGI above 100 µM. The GI50 in test [2] is 12.1 µM and 4.68 µM; in [5] it was 2.27 µM and 6.5 µM; in test [6] it was 14.6 µM and 6.14 µM; in test [7] it was 5.28 µM; in test [8] it was 24.9 µM and 9.7 µM; in [13] it was 3.35 µM and 1.05 µM. In test [10], the GI50 was 12 µM and 5.85 µM.
For `NC1=NS(=O)(=O)Nc2nc(-c3ccc([N+](=O)[O-])o3)[nH]c21`, the TGI stood at 29 µM in [1]; 46.7 µM in test [11]; 32.4 µM in test [2]; 30.6 µM in test [3]; 58.6 µM in test [4]; 25.5 µM in [5]. Further, the total growth inhibition concentration (TGI) turned out to be 39.4 µM in test [6]; 34 µM in test [12]; 28.4 µM in [7]; 30.7 µM in [9]; 32 µM in [10].
Consider `CC(=O)C1=C(C)NC2C=CC=CN12` (stereo not given), for which the TGI in test [1], in test [11], in test [2], in test [3], in test [4] and in test [5] was above 100 µM in each case. Moreover, the TGI in test [6], in test [12], in test [7], in [8], in test [9] and in test [10] was above 100 µM throughout.
Turning to `COc1ccc(O)cc1`, the TGI in test [1], in test [11], in test [2], in test [3], in test [4] and in [5] was above 100 µM throughout. The TGI in test [6], in [12], in [7], in [8], in test [9] and in test [10] was above 100 µM throughout.
Consider `O=C1Nc2c(ccc(Cl)c2I)C1=O`, for which the TGI in test [1] was 28.2 µM; in test [11] it was 35.8 µM; in [2], 48.3 µM; in [3], 28.3 µM; in test [4], above 100 µM; in test [5] it was 31.3 µM. For the same molecule, the TGI was 30.7 µM in [6]; 30.1 µM in [12]; 29.4 µM in test [7]; 27.7 µM in test [9]; 35.3 µM in test [10].
Regarding `NC1=NS(=O)(=O)Nc2nc(-c3ccc(Cl)cc3)c(-c3ccc(Cl)cc3)nc21`, the TGI in [1], in [2], in [3], in test [5], in test [6] and in test [12] was above 100 µM each time. Also, the TGI in [7], in [8] and in test [10] was above 100 µM throughout.
As to `CCCCCCCCCCCCCCCCCC(=O)O[C@H](COC(=O)CCCCCCCCCCC)COC(=O)CCCCCCCCCCCCCCC`, the TGI in [1], in [11], in [2], in test [3], in [4] and in test [6] was above 100 µM in each case. The TGI in test [12], in [7], in test [8] and in test [10] was above 100 µM in each case.
With `O=C(CSc1nnc(Cc2ccccc2)o1)Nc1ccc([N+](=O)[O-])cc1`, the TGI in [1], in test [11], in [2], in test [3], in test [4] and in [5] was above 100 µM each time. Further, the TGI in test [6] was above 100 µM; in test [12] it was 72.2 µM; in test [7], above 100 µM; in [8] it was above 100 µM; in test [9], above 100 µM; in [10], above 100 µM.
For the molecule `O=C(Cc1ccccc1)NN1C(=O)C(Cl)C1c1ccc(O)cc1` (stereo not given), the TGI in test [1], in test [11], in [2], in [3], in test [4] and in test [5] was above 100 µM each time. The TGI in test [6], in test [12], in [7], in [8], in test [9] and in test [10] was above 100 µM throughout.
`CC(C)C(=O)/C=C/c1ccc(Br)cc1`: the TGI came to 23.2 µM in test [1]; 39.2 µM in test [11]; 21.5 µM in test [4]; 36 µM in test [5]; 38.2 µM in [6]; 37 µM in [12]. The TGI was 32.4 µM in test [7], 30.8 µM in [8], 29.7 µM in test [9] and 20.3 µM in [10].
Take `CC(=O)Nc1cc2c(s1)CCC1CC(=O)NN=C21` (stereo not given): the TGI in test [1], in test [11], in test [2], in test [3], in test [4] and in [5] was above 100 µM throughout. For the same molecule, the TGI in test [6], in [12], in [7] and in [9] was above 100 µM throughout.
Regarding `COC(=O)N/N=C(\C)C(CN1CCCCC1)C(C1=C(O)c2ccccc2OC1)c1ccccc1` (stereo not given), the TGI in [1], in test [11], in test [2], in test [3], in test [4] and in test [5] was above 100 µM each time. For the same molecule, the TGI in test [6], in test [12], in test [7], in test [8], in test [9] and in test [10] was above 100 µM throughout.
Regarding `O=C1OC2(OC2c2ccccc2)c2ccccc21` (stereo not given), the TGI in test [1], in [11], in test [2], in test [3], in [4] and in test [5] was above 100 µM throughout. Further, the TGI in test [6] was above 100 µM; in test [12], 11 µM; in test [7] it was above 100 µM; in test [8] it was above 100 µM; in [9], above 100 µM; in [10] it was above 100 µM.
As for `O=C1c2ccccc2C(=O)N1Cc1ccccc1-c1c2nc(c(-c3ccccc3CN3C(=O)c4ccccc4C3=O)c3ccc([nH]3)c(-c3ccccc3CN3C(=O)c4ccccc4C3=O)c3nc(c(-c4ccccc4CN4C(=O)c5ccccc5C4=O)c4ccc1[nH]4)C=C3)C=C2`, the TGI in test [1], in [11], in [2], in test [3], in test [4] and in test [5] was above 100 µM each time. Besides, the TGI in test [6], in test [12], in [7], in test [8], in test [9] and in test [10] was above 100 µM throughout.
With `O=C1CCCCC(=O)OC2(CCCCC2=O)CC1` (stereo not given), the concentration for total growth inhibition (TGI) in test [1], in test [11], in test [2], in [3], in test [5] and in test [6] was above 100 µM throughout. The TGI in test [7], in test [8], in test [9] and in test [13] was above 100 µM each time.
`CC1CCOc2ccc(cc2)C=Nc2ccc(cc2)CCc2ccc(cc2)N=Cc2ccc(cc2)OCC1` (stereo not given): the TGI in test [1], in test [11], in [2], in test [3], in test [5] and in test [6] was above 100 µM throughout. Moreover, the TGI in [7], in test [8], in [9] and in [13] was above 100 µM throughout.
For the molecule `Cc1cn(C2CC(n3cc(Cn4cc(Br)c(=O)[nH]c4=O)nn3)C(CO)O2)c(=O)[nH]c1=O` (stereo not given), the TGI in test [1], in test [11], in test [2], in [3], in [5] and in [6] was above 100 µM in each case. Further, the TGI in test [7], in test [8], in test [9] and in test [13] was above 100 µM each time.
Turning to `CCC1(C(=O)OC(C)(C)C)OC12C(C)CCCC2C` (stereo not given), the TGI was above 100 µM in test [1]; 49.9 µM in test [11]; above 100 µM in test [2]; above 100 µM in [3]; 36.4 µM in [5]; above 100 µM in test [6]. For the same molecule, the TGI in [7], in test [8], in [9] and in test [13] was above 100 µM throughout.
For the molecule `CC(=O)c1ccc2c3c1[C@@H]1O[C@@H]1c1cccc(c1-3)[C@@H]1O[C@H]21`, the TGI is 24.9 µM in test [1]; above 100 µM in test [11]; 36.6 µM in test [2]; 20.3 µM in [3]; 25.8 µM in [5]; 23.3 µM in test [6]. The TGI is 22.3 µM in [7], above 60.2 µM in test [8], above 57.1 µM in test [9] and 39.9 µM in test [13].
Turning to `N#C/C(=C\n1ccc(=O)[nH]c1=S)C(N)=O`, the TGI in [1], in test [11], in [2], in test [3], in test [5] and in test [6] was above 100 µM in each case. The TGI in test [7], in [8], in test [9] and in test [13] was above 100 µM each time.
Consider `CCOC(=O)/C=C(\C(=O)OCC)n1cc(C)c(=O)n(Cc2cnnn2CCCCOC(C)=O)c1=O`, for which the TGI in test [1] is 28 µM; in test [11], above 26.7 µM; in test [2] it was above 68.1 µM; in test [3], 3.79 µM; in test [5] it was 9.1 µM; in test [6], 36.8 µM. In addition, the TGI in test [7] came to 86.2 µM; in test [8] it was 31.7 µM; in [9], 53 µM; in test [13] it was 55.8 µM.
